Experimental data taken from patent US20260256789A1, “METHODS FOR TREATMENT OF CANCER” (Frontier Medicines Corporation, priority 2022, published 2026).

molecular target: T1, KRAS G12C (GMPPNP-loaded) and cRAF Ras-binding domain (Homo sapiens, UniProt P01116, C118S/C51S/C80L/G12C); assay: Inhibition of KRAS G12C and cRAF binding (AlphaScreen); conditions: KRAS G12C preloaded with GTP analogue GMPPNP, 2 hours preincubation
T1 construct: truncated version comprising amino acids 1-169
Procedure, shortened: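 Compounds (10-point, 1:3 from 50 μM; 2% DMSO) were incubated 2 h at room temperature with 0.5 nM GMPPNP-preloaded truncated Cys-light KRAS G12C, then 60-90 min with 0.75 nM GST-RBD of cRAF and AlphaScreen beads. Signal at 570 nm gave IC50 by 4-parameter regression, and a biotin-AviTag-GST counter assay excluded interference with the AlphaScreen readout.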

T1 sequence (P01116 1-169 isoform P01116-2 G12C/C51S/C80L/C118S): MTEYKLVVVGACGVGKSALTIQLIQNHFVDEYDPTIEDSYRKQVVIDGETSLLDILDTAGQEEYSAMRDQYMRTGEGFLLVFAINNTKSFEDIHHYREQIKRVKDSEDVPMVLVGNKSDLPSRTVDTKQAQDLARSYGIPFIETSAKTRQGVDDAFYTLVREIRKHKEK

IC50 | SMILES
≥ 500 nM | C=CC(=O)N1CC[C@@H](N(C)c2nc(OC[C@@]34CCCN3C[C@H](F)C4)nc3c(F)c(-c4cncc(F)c4C4CC4)ncc23)C1 [Example 188]
10 to 100 nM | CN1CC[C@H]1/C=C/C(=O)N1CC[C@@H](N(C)c2nc(OC[C@@]34CCCN3C[C@H](F)C4)nc3c(F)c(-c4nc(N)cc5cccc(Cl)c45)ncc23)C1 [Example 108]
100 to 500 nM | CN1CC[C@H]1/C=C/C(=O)N1CC[C@@H](N(C)c2nc(OC[C@@]34CCCN3C[C@H](F)C4)nc3c(F)c(-c4nc(N)cc5cccc(F)c45)ncc23)C1 [Example 135]
10 to 100 nM | CN(C)CC#CC(=O)N1CC(CN(C)c2nc(OC[C@@]34CCCN3C[C@H](F)C4)nc3c(F)c(-c4nc(N)cc5cccc(Cl)c45)ncc23)C1 [Example 110]
< 10 nM | C=CC(=O)N1CC[C@@H](N(C)c2nc(OC[C@@]34CCCN3C[C@H](F)C4)nc3c(F)c(-c4cc(O)cc(Cl)c4C4CC4)ncc23)C1 [Example 12, 1-((R)-3-((7-(3-chloro-2-cyclopropyl-5-hydroxyphenyl)-8-fluoro-2-(((2R,7aS)-2-fluorotetrahydro-1H-pyrrolizin-7a(5H)-yl)methoxy)pyrido[4,3-d]pyrimidin-4-yl)(methyl)amino)pyrrolidin-1-yl)prop-2-en-1-one]
10 to 100 nM | C=CC(=O)N1CC[C@@H](N(C)c2nc(OC[C@@]34CCCN3C[C@H](F)C4)nc3c(F)c(-c4cccc(Cl)c4C4CC4)ncc23)C1 [Example 252]
100 to 500 nM | C=CC(=O)N1CC[C@@H](N(C)c2nc(OC[C@@]34CCCN3C[C@H](F)C4)nc3c(F)c(-c4cc(F)cc(Cl)c4C4CC4)ncc23)C1 [Example 191]
10 to 100 nM | Cc1cc(N)nc(-c2ncc3c(N(C)[C@@H]4CCN(C(=O)/C=C/c5nc(C(C)C)no5)C4)nc(OC[C@@]45CCCN4C[C@H](F)C5)nc3c2F)c1C [Example 53, (E)-1-((R)-3-((7-(6-amino-3,4-dimethylpyridin-2-yl)-8-fluoro-2-(((2R,7aS)-2-fluorotetrahydro-1H-pyrrolizin-7a(5H)-yl)methoxy)pyrido[4,3-d]pyrimidin-4-yl)(methyl)amino)pyrrolidin-1-yl)-3-(3-isopropyl-1,2,4-oxadiazol-5-yl)prop-2-en-1-one]
< 10 nM | Cc1noc(/C=C/C(=O)N2CC[C@@H](N(C)c3nc(OC[C@@]45CCCN4C[C@H](F)C5)nc4c(F)c(-c5nc(N)cc(C)c5C(F)(F)F)ncc34)C2)n1 [Example 55, (E)-1-((R)-3-((7-(6-amino-4-methyl-3-(trifluoromethyl)pyridin-2-yl)-8-fluoro-2-(((2R,7aS)-2-fluorotetrahydro-1H-pyrrolizin-7a(5H)-yl)methoxy)pyrido[4,3-d]pyrimidin-4-yl)(methyl)amino)pyrrolidin-1-yl)-3-(3-methyl-1,2,4-oxadiazol-5-yl)prop-2-en-1-one]
≥ 500 nM | C=CC(=O)N1CC(CN(C)c2nc(OCC34CCCN3CCC4)nc3c2C[C@H](C)[C@@H](c2nc(N)cc(C)c2C(F)(F)F)C3)C1 [Example 109]
10 to 100 nM | Cc1nsc(/C=C/C(=O)N2CC(CN(C)c3nc(OC[C@@]45CCCN4C[C@H](F)C5)nc4c3C[C@@H](C)[C@H](c3nc(N)cc(C)c3C(F)(F)F)C4)C2)n1 (single isomer, unassigned) [Example 126]

The next lines start with the compound.

SMILES | IC50
Cc1noc(/C=C/C(=O)N2CC[C@@H](N(C)c3nc(OC[C@@]45CCCN4C[C@H](F)C5)nc4c3C[C@@H](C)[C@H](c3nc(N)cc(C)c3C(F)(F)F)C4)C2)n1 [Example 136] | < 10 nM
CN1CC[C@@H]1/C=C/C(=O)N1CC[C@@H](N(C)c2nc(OC[C@@]34CCCN3C[C@H](F)C4)nc3c(F)c(-c4cccc(Cl)c4C(F)(F)F)ncc23)C1 [Example 242] | 10 to 100 nM
C=CC(=O)N1CC[C@@H](N(C)c2nc(OC[C@@]34CCCN3C[C@H](F)C4)nc3c(F)c(-c4nc(N)ccc4C)ncc23)C1 [Example 125, 1-((R)-3-((7-(6-amino-3-methylpyridin-2-yl)-8-fluoro-2-(((2R,7aS)-2-fluorotetrahydro-1H-pyrrolizin-7a(5H)-yl)methoxy)pyrido[4,3-d]pyrimidin-4-yl)(methyl)amino)pyrrolidin-1-yl)prop-2-en-1-one] | ≥ 500 nM
CN(c1nc(OC[C@@]23CCCN2C[C@H](F)C3)nc2c(F)c(-c3cccc(Cl)c3C3CC3)ncc12)[C@@H]1CCN(C(=O)C#C[C@]2(C)CCCN2)C1 [Example 193] | < 10 nM
CO[C@@H]1CCN(C/C=C/C(=O)N2CC[C@@H](N(C)c3nc(OC[C@@]45CCCN4C[C@H](F)C5)nc4c(F)c(-c5cccc(Cl)c5C5CC5)ncc34)C2)C1 [Example 222] | 100 to 500 nM
Cc1cc(N)nc(-c2ncc3c(N(C)CC4CN(C(=O)/C=C/c5nc(C(C)C)no5)C4)nc(OC[C@@]45CCCN4C[C@H](F)C5)nc3c2F)c1C [Example 85] | 100 to 500 nM
Cc1cc(N)nc(-c2ncc3c(N(C)CC4CN(C(=O)/C=C/c5nc(C(C)C)no5)C4)nc(OC[C@@]45CCCN4C[C@H](F)C5)nc3c2F)c1C(F)(F)F [Example 153] | < 10 nM
C=CC(=O)N1CC[C@@H](N(C)c2nc(OC[C@@]34CCCN3C[C@H](F)C4)nc3c2C[C@H](C)[C@@H](c2nc(N)cc(C)c2C(F)(F)F)C3)C1 [Example 145, 1-((R)-3-(((6S,7S)-7-(6-amino-4-methyl-3-(trifluoromethyl)pyridin-2-yl)-2-(((2R,7aS)-2-fluorotetrahydro-1H-pyrrolizin-7a(5H)-yl)methoxy)-6-methyl-5,6,7,8-tetrahydroquinazolin-4-yl)(methyl)amino)pyrrolidin-1-yl)prop-2-en-1-one] | ≥ 500 nM
C=CC(=O)N1CC[C@@H](N(C)c2nc(OC[C@@]34CCCN3C[C@H](F)C4)nc3c(F)c(-c4nc(N)cc(C)c4C4CC4)ncc23)C1 [Example 5, 1-((R)-3-((7-(6-amino-3-cyclopropyl-4-methylpyridin-2-yl)-8-fluoro-2-(((2R,7aS)-2-fluorotetrahydro-1H-pyrrolizin-7a(5H)-yl)methoxy)pyrido[4,3-d]pyrimidin-4-yl)(methyl)amino)pyrrolidin-1-yl)prop-2-en-1-one] | 100 to 500 nM
C=CC(=O)N1CC[C@@H](N(C)c2nc(OC[C@@]34CCCN3C[C@H](F)C4)nc3c(F)c(-c4cc(OC(F)F)ccc4Cl)ncc23)C1 [Example 186] | ≥ 500 nM
Cc1cc(N)nc(-c2ncc3c(N(C)[C@@H]4CCN(C(=O)/C=C/c5nc(C6CC6)no5)C4)nc(OC[C@@]45CCCN4C[C@H](F)C5)nc3c2F)c1C(F)(F)F [Example 63, (E)-1-((R)-3-((7-(6-amino-4-methyl-3-(trifluoromethyl)pyridin-2-yl)-8-fluoro-2-(((2R,7aS)-2-fluorotetrahydro-1H-pyrrolizin-7a(5H)-yl)methoxy)pyrido[4,3-d]pyrimidin-4-yl)(methyl)amino)pyrrolidin-1-yl)-3-(3-cyclopropyl-1,2,4-oxadiazol-5-yl)prop-2-en-1-one] | < 10 nM
CN(c1nc(OC[C@@]23CCCN2C[C@H](F)C3)nc2c(F)c(-c3cccc(Cl)c3C3CC3)ncc12)[C@@H]1CCN(C(=O)C#C[C@@]2(C)CCCN2)C1 [Example 215] | < 10 nM
CN(c1nc(OC[C@@]23CCCN2C[C@H](F)C3)nc2c(F)c(-c3nc(N)cc4cccc(F)c34)ncc12)[C@@H]1CCN(C(=O)/C=C/CN2CCOCC2)C1 [Example 167, (E)-1-((R)-3-((7-(3-amino-8-fluoroisoquinolin-1-yl)-8-fluoro-2-(((2R,7aS)-2-fluorotetrahydro-1H-pyrrolizin-7a(5H)-yl)methoxy)pyrido[4,3-d]pyrimidin-4-yl)(methyl)amino)pyrrolidin-1-yl)-4-morpholinobut-2-en-1-one] | ≥ 500 nM
Cc1cc(N)nc(-c2ncc3c(N(C)[C@@H]4CCN(C(=O)C#CCN5CCOCC5)C4)nc(OC[C@@]45CCCN4C[C@H](F)C5)nc3c2F)c1C(F)(F)F [Example 101] | 10 to 100 nM
Cc1cc(N)nc(-c2ncc3c(N(C)[C@@H]4CCN(C#N)C4)nc(OC[C@@]45CCCN4C[C@H](F)C5)nc3c2F)c1C(F)(F)F [Example 239] | < 10 nM
C=CC(=O)N1CC[C@@H](N(C)c2nc(OC[C@@]34CCCN3C[C@H](F)C4)nc3c(F)c(-c4c(O)cccc4Cl)ncc23)C1 [Example 229] | ≥ 500 nM
Cc1noc(/C=C/C(=O)N2CC[C@@H](N(C)c3nc(OCC45CCCN4CCC5)nc4c3C[C@H](C)[C@@H](c3nc(N)cc(C)c3C(F)(F)F)C4)C2)n1 (single isomer, unassigned) [Example 17] | 10 to 100 nM
Cc1nccc(/C=C/C(=O)N2CC(CN(C)c3nc(OC[C@@]45CCCN4C[C@H](F)C5)nc4c(F)c(-c5nc(N)cc6cccc(Cl)c56)ncc34)C2)n1 [Example 156, (E)-1-(3-(((7-(3-amino-8-chloroisoquinolin-1-yl)-8-fluoro-2-(((2R,7aS)-2-fluorotetrahydro-1H-pyrrolizin-7a(5H)-yl)methoxy)pyrido[4,3-d]pyrimidin-4-yl)(methyl)amino)methyl)azetidin-1-yl)-3-(2-methylpyrimidin-4-yl)prop-2-en-1-one] | 10 to 100 nM
C=CC(=O)N1CC(CN(C)c2nc(OC[C@@]34CCCN3C[C@H](F)C4)nc3c2C[C@@H](C)[C@H](c2nc(N)cc(C)c2C(F)(F)F)C3)C1 [Example 132] | 100 to 500 nM
Cc1nsc(/C=C/C(=O)N2CC[C@@H](N(C)c3nc(OC[C@@]45CCCN4C[C@H](F)C5)nc4c3C[C@H](C)[C@@H](c3nc(N)cc(C)c3C(F)(F)F)C4)C2)n1 [Example 88, (E)-1-((R)-3-(((6S,7S)-7-(6-amino-4-methyl-3-(trifluoromethyl)pyridin-2-yl)-2-(((2R,7aS)-2-fluorotetrahydro-1H-pyrrolizin-7a(5H)-yl)methoxy)-6-methyl-5,6,7,8-tetrahydroquinazolin-4-yl)(methyl)amino)pyrrolidin-1-yl)-3-(3-methyl-1,2,4-thiadiazol-5-yl)prop-2-en-1-one] | ≥ 500 nM
Cc1cc(N)nc(-c2ncc3c(N(C)[C@@H]4CCN(C(=O)C#CCN(C)C)C4)nc(OC[C@@]45CCCN4C[C@H](F)C5)nc3c2F)c1C(F)(F)F [Example 159] | < 10 nM
